Measurements taken from US12600727B2, “Treatment of infections of toxoplasma gondii and closely related parasites” (WASHINGTON UNIVERSITY, priority 2018, dated 2026).
Where two headings read alike, the source gives them in different places.

Tests used:
Type in all cases: cell-based
[1] = system: Neospora caninum parasites (NC-1 strain); assay: N. caninum (NC-1, lac-Z) growth inhibition in HFF, β-Gal assay; settings: N. caninum NC-1 lac-Z, 72 h, 10-point dose response 5 μM-0.01 μM, average of three biological replicates, read-out: EC50
Procedure: Neospora caninum parasites (NC-1 strain) expressing a lac-Z transgene (1) were serially passaged as tachyzoites in human foreskin fibroblasts cultured in DMEM supplemented with 10% fetal bovine serum (FBS), glutamine (10 mM) and gentamycin (10 μg/mL). Mature cultures were scraped, syringe passed using a 25 g needle to release parasites, filtered through a 3 micron polycarbonate filter to remove host cell debris and counted prior to each assay. All cultures were maintained in a 37° C. incubator with 5% CO2 and were verified mycoplasma free using the e-Myco plus Mycoplasma PCR detection kit (Boca Scientific).
Compounds were prepared as 10 mM stock in 100% DMSO. Pyrimethamine (positive control) and DMSO were included as controls in all plates and all replicates. The EC50 values were determined using a 10-point dose response curve using a 2-fold dilution series from 5.0 μM to 0.01 μM across the plate. Experiments were conducted in 96-well plates containing confluent HFF cells. Each assay plate was inoculated with 1×10^3 parasites (100 μL) containing 100 μL of 2× compound and incubated for 72 h prior to preparation for the j-Gal assay as described in Seeber, F. et al., Gene 169 (1996): 39-45, hereby incorporated by reference in its entirety and particularly in relation to the β-Gal assay protocol. Briefly, culture medium was replaced, wells rinsed with 200 μL of PBS followed by incubation with 50 μL of lysis buffer (100 mM HEPES, 1 mM MgSO4, 1% Triton X-100, 5 mM DTT) for 10 min at 50° C.
EC50 values determined from 10-point dose response curve (5 μM-0.01 μM) and presented as the average of three biological replicates. Linear regression and dose response inhibition (log ([compound]) vs normalized response-variable slope) were performed with Prism 8 for Mac (Graphpad Software, Inc.) and both the fits and data are shown in FIG. 1. Values represent the average of three biological replicates each with two internal replicates and are plotted as mean±S.E.M.

[2] = system: Toxoplasma gondii strains expressing FLUC; assay: microbe, parasite or virus in culture
Procedure: The ability of bicyclic azetidines to inhibit different strains of T. gondii was tested using a series of firefly luciferase (FLUC)-tagged lines. […] A similar strategy was utilized to derive FLUC expressing lines from additional T. gondii strains MAS (type 4) and FOU (type 6).

[3] = system: Toxoplasma gondii tachyzoites (ME49-FLUC, type 2); assay: T. gondii ME49-FLUC tachyzoite growth inhibition in HFF, luciferase assay; settings: T. gondii ME49-FLUC (type 2) tachyzoites in HFF
Procedure: Toxoplasma gondii tachyzoites (ME49-FLUC, type 2) (27) were serially passaged in human foreskin fibroblasts (HFF) cultured in complete DMEM medium (DMEM supplemented with 10% fetal bovine serum (FBS), glutamine (10 mM) and gentamycin (10 μg/mL)). For each assay described, infected monolayers were scraped, needle passed (23 ga), and parasites were separated from host cell debris using a three (3) micron pore polycarbonate filter. HeLa cells were cultured in MEM media that contained 10% FBS, 4 mM L-glutamine and 10 mM HEPES solution. Cell culture and assays were conducted using a 37° C. incubator with 5% CO2. Cell cultures were negative for mycoplasma, as determined using the e-Myco plus kit (Intron Biotechnology).
White, clear bottom 96-well assay plates were set up as described above with the following modifications. Only the inner 60 wells were used for the assay in order to reduce variability that results from evaporation during incubation. Dilution of compound stock is as described above, with all wells containing a final concentration of 0.1% DMSO. DMSO (vehicle control) and pyrimethamine (2.5 μM, positive control) were included in the outside wells of all plates as controls. Liquid handling (serial dilutions, compound dilutions, cell feeding, plate-to-plate transfers, etc.) utilized a Dual Pod Biomek FX. Luciferase assays were performed using the integrated and automated platform (Beckman Coulter). The SAMI EX software was used to design and execute the screening assay and enabled efficient and uniform assay execution across all the assay plates.

## COc1ccc(NC(=O)N2CCCCN3[C@H](CN(C)C)[C@H](c4ccc(C#Cc5ccccc5)cc4)[C@@H]3C2)cc1 [Compound 15, (8R,9S,10S)-10-((dimethylamino)methyl)-N-(4-methoxyphenyl)-9-(4-(phenylethynyl)phenyl)-1,6-diazabicyclo[6.2.0]decane-6-carboxamide]
[1]
  EC50: 250 nM
[2]; genotype 4, read-out: Average EC50 ± S.D.
  EC50: 41.9 nM
[2]; genotype 5, read-out: Average EC50 ± S.D.
  EC50: 26.9 nM
[2]; genotype 6, read-out: Average EC50 ± S.D.
  EC50: 45.1 nM
[2]; strain ME49, genotype 2, three or more independent titrations, read-out: Average EC50 ± S.D.
  EC50: 49.4 nM
[2]; strain VAND, genotype 10, three or more independent titrations, read-out: Average EC50 ± S.D.
  EC50: 27.9 nM
[3]
  EC50: 22.6 nM
